Data: patent publication US20080145886A1, “Assay for Cytochrome P450 Isoforms 3A4 and 3A5” (priority 2004, published 2008)

Key:
CYP3A4/5 [1] = biological target: T1, CYP3A4/5 (Homo sapiens, UniProt P08684); assay: in vitro; conditions: microsomes
Description: Quantification of 6β-hydroxytestosterone and 2β-hydroxytestosterone. Aliquots of the assay reaction mixture and of metabolite standard curves were analyzed by HPLC using an Agilent HP1100 liquid chromatograph (Agilent Technologies) equipped with a CTC Analytics PAL autosampler (HTS PAL; CTC Analytics AG, Switzerland). Chromatography was performed on an XTERRA MS C18 column (4.6 mm×5 cm; 5 μm; Waters Corp.) at a flow rate of 1 mL/min, using a mobile phase consisting of a mixture of 0.1% formic acid in water (A) and 0.1% formic acid in acetonitrile (B) (linear gradient for 4 min from 5-100% B; 2 min at 100% B). The eluant was diverted to waste for the first minute, and then to a Sciex API-2000 triple quadrupole mass spectrometer with a Turbo Ionspray ionization source operated in the positive ion mode. […] Metabolite concentrations were determined by weighted linear least-squares regression analysis of peak area ratios vs. those of a standard curve, using Analyst Quantitation Wizard software version 1.4.

CYP3A4/5 [2] = biological target: T1, CYP3A4/5; assay: in vitro; conditions: pH 7.6; for IC50: microsomes
Description: Pooled HLM were obtained from Gentest Corp. (Woburn, Mass.). Inhibitors were added to the reaction mixture from stock solutions in DMSO, giving a final solvent concentration of 0.6% (v/v). No inhibitor controls contained an equivalent amount of vehicle. Following preincubation for 10 minutes at 37° C., reactions were started by addition of 1 mM NADPH and an NADPH regenerating system containing 5 mM glucose-6-phosphate, 3 mM MgCl2, and 1 U/mL glucose-6-phosphate dehydrogenase. Assays were conducted for 10 minutes at 37° C. and stopped by addition of HCl to a final concentration of 0.1 N. Plates were then centrifuged for 10 minutes in a microplate rotor and supernatants loaded into the wells of a preconditioned 30 mg OASIS 96-well HLB plate. OASIS HLB 96 well extraction plates containing 10 or 30 mg of OASIS sorbent and vacuum manifold were purchased from Waters Corp. Vacuum was applied and the void volume collected in the collection plate. Then, 200 μL of water was added, vacuum was applied again, and the wash was collected into the same plate. This step was repeated. Pooled void volume and water washes were transferred into scintillation vials and counted in a beta-scintillation counter. Alternatively, aliquots were counted in […] scintillation plates using a TOPCOUNT scintillation counter (Packard, Perkin Elmer, Boston, Mass.). For the calculation of enzyme activity, product counts were corrected by subtraction of counts obtained in control incubations performed in the absence of NADPH regenerating system.
Total radioactivity was 100,000 to 200,000 dpm, reaction volume was 100 μL, and solvent concentration (coming from inhibitor stock solutions) was 0.3-0.7% DMSO and 0.5% acetonitrile (v/v). […] Radioactivity was determined using a Beckman beta scintillation counter, or by counting 120 μL aliquots in 96-well scintillation plates using a TOPCOUNT scintillation counter. […]
Without using the known ^TV/K ratio (which would be tautological, since it was derived from SAP), v′, the apparent formation rate of unlabelled product, can be calculated. […]

CYP3A4/5 [3] = tested on: CYP3A4/5
Description: Cryopreserved human hepatocytes from two different donors were obtained from Tissue Transformation Technologies (Edison, N.J.). […] CYP3A4/5 enzyme activity was then determined as follows.
The incubation medium was then loaded onto individual wells of preconditioned 30 mg OASIS plates, which were washed two times with 200 μL of water. For each well, the flow-through was combined with the water washes and counted in a beta-counter after addition of scintillation fluid. 6-p-hydroxytestosterone was eluted from the OASIS plates with 1 mL of methanol, dried under N2, and reconstituted in 200 uL of 50% acetonitrile/water (50:50) containing 0.1% of formic acid. Aliquots were injected into an HPLC-MS/MS system for quantification of 6β-hydroxytestosterone. Quantification was based on comparison of peak areas with those of a standard curve that was treated and extracted exactly like unknown samples.

CYP3A4/5 [4] = biological target: T1, CYP3A4/5; conditions: human hepatocytes, 200 μM testosterone, 10 μM ketoconazole, 1 hour
Description: For each well, the flow-through was combined with the water washes and counted in a beta-counter after addition of scintillation fluid.
Aliquots were injected into an HPLC-MS/MS system for quantification of 6β-hydroxytestosterone. Quantification was based on comparison of peak areas with those of a standard curve that was treated and extracted exactly like unknown samples.

CYP3A4/5 [5] = biological target: T1, CYP3A4/5; conditions: HLM
CYP3A4/5 [6] = biological target: T1, CYP3A4/5; conditions: HLM; remark: listed apart in the source
CYP3A4 = CYP3A4 (Homo sapiens, UniProt P08684); conditions: read-out: IC50 (Draper et al.); competitive substrate; cited from earlier work
Sequence of CYP3A4 (P08684 whole entry): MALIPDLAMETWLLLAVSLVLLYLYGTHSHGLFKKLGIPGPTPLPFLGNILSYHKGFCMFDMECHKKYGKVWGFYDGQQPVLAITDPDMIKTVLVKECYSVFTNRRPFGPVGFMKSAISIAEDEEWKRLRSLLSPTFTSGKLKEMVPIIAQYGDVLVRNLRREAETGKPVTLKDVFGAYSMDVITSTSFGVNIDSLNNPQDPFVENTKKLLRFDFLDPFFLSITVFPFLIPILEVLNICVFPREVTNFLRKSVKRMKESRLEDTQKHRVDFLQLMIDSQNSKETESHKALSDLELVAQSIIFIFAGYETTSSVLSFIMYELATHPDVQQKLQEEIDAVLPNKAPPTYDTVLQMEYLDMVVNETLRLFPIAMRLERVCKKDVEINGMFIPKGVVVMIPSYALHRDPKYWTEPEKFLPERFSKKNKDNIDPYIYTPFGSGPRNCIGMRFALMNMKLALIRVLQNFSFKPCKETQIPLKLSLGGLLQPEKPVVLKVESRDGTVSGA

T1 sequence (P08684 2-503): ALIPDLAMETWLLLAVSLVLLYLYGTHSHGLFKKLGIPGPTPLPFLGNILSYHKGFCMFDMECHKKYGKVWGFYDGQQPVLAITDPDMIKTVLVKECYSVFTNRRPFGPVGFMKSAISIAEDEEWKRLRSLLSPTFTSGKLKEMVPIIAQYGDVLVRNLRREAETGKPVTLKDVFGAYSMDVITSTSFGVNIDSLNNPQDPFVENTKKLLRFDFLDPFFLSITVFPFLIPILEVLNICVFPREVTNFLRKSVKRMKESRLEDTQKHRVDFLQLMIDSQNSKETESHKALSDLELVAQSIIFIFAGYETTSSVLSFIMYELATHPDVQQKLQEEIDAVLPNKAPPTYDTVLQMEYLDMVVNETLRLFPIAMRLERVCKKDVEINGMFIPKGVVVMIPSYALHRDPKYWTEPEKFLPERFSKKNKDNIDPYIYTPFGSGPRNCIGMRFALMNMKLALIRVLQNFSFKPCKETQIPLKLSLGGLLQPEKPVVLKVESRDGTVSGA

CC(C)C[C@H]1C(=O)N2CCC[C@H]2[C@]2(O)O[C@](NC(=O)[C@@H]3C=C4c5cccc6[nH]c(Br)c(c56)C[C@H]4N(C)C3)(C(C)C)C(=O)N12 [Bromocriptine]
IC50 (CYP3A4/5 [1]): 1400 ± 10 nM
IC50 (CYP3A4/5 [2]): 1200 ± 300 nM

CC(=O)N1CCN(c2ccc(OCC3COC(Cn4ccnc4)(c4ccc(Cl)cc4Cl)O3)cc2)CC1 (stereo not shown) [Ketoconazole]
Inhibition of 6β-hydroxytestosterone formation in cultured hepatocytes (CYP3A4/5 [3]): almost completely inhibited
Inhibition of [^3H]-H2O formation in cultured hepatocytes (CYP3A4/5 [3]): almost completely inhibited
Formation rate of 6β-hydroxytestosterone (CYP3A4/5 [4]): Not detected

Clc1ccc(COC(Cn2ccnc2)c2ccc(Cl)cc2Cl)c(Cl)c1 (stereo not shown) [Miconazole]
IC50 (CYP3A4/5 [2]): 60 ± 10 nM

COC(=O)C1=C(C)NC(C)=C(C(=O)OCCN(C)Cc2ccccc2)C1c1cccc([N+](=O)[O-])c1 (stereo not shown) [Nicardipine]
n (Hill coefficient) LC-MS (CYP3A4/5 [5]): 2.7
n (Hill coefficient) Radiometric (CYP3A4/5 [6]): 2.5

CC[C@H]1OC(=O)[C@H](C)[C@@H](O[C@H]2C[C@@](C)(OC)[C@@H](O)[C@H](C)O2)[C@H](C)[C@@H](O[C@@H]2O[C@H](C)C[C@H](N(C)C)[C@H]2O)[C@](C)(O)C[C@@H](C)C(=O)[C@H](C)[C@@H](O)[C@]1(C)O [erythromycin]
IC50 (CYP3A4): 130 µM

C[C@]12CC[C@H]3[C@@H](CCC4=CC(=O)CC[C@@]43C)[C@@H]1CC[C@@H]2O [testosterone]
V′max (apparent maximal rate of product formation) (CYP3A4/5 [2]): 1.3 ± 0.1 nmol/min/mg
